4 compounds from ChEMBL document CHEMBL1124193, “Synthesis and bacterial DNA gyrase inhibitory properties of a spirocyclopropylquinolone derivative” (J Med Chem, 1988) can be followed below.

What all share (assay type): functional
Test [1] relates to Staphylococcus aureus. The test is described as follows: In vitro minimum inhibitory concentration against Staphylococcus aureus (ATCC 29213).
Test [2] has as its system Bacteroides fragilis. The test is described as follows: In vitro minimum inhibitory concentration against Bacteroides fragilis (ATCC 25285).
The test system of test [3] is Mus musculus. The test is described as follows: In vivo antibacterial activity against Escherichia coli (Vogel) in mice administered perorally. To be noted: po, read-out: PD50.
Test [4] has as its system Enterococcus faecalis. The test is described as follows: In vitro minimum inhibitory concentration against Streptococcus faecalis (ATCC 29212).
The subject of test [5] is Mus musculus. Briefly: In vivo antibacterial activity against Escherichia coli (Vogel) in mice administered subcutaneously. The settings on record: sc, read-out: PD50.
For test [6], the system named is Pseudomonas aeruginosa. The test is described as follows: In vitro minimum inhibitory concentration against Pseudomonas aeruginosa (ATCC 27853).
In test [7] the test system is Escherichia coli. Briefly: In vitro minimum inhibitory concentration against Escherichia coli (ATCC […]25922).
The subject of test [8] is Streptococcus pneumoniae. The test is described as follows: In vitro minimum inhibitory concentration against Streptococcus pneumoniae (ATCC 6301).

Structures are written as SMILES. ≈ marks a conversion by molar mass, not a printed value.

By MIC is commonly meant the smallest concentration in the dilution series that meets the test's criterion for growth inhibition. Read a high MIC as weaker potency. On to `CC1COc2c(N3CCN(C)CC3)c(F)cc3c(=O)c(C(=O)O)cn1c23` (stereo unspecified) [OFLOXACIN], for which the MIC in test [1] is 0.25 µg/mL (≈ 0.692 µM); in test [2], 0.5 µg/mL (≈ 1.38 µM); in test [4], 2 µg/mL (≈ 5.53 µM); in test [6] it was 0.5 µg/mL (≈ 1.38 µM). In addition, the ED50 in test [3] is 2.2 mg/kg; in test [5] it was 1.2 mg/kg.

On to `CN1CCN(c2c(F)cc3c(=O)c(C(=O)O)cn4c3c2OCC42CC2)CC1`, for which the MIC in test [7] worked out at 0.125 µg/mL (≈ 0.335 µM); in test [1], 2 µg/mL (≈ 5.36 µM); in test [2], 8 µg/mL (≈ 21.4 µM); in test [4] it was 8 µg/mL (≈ 21.4 µM); in test [8], 8 µg/mL (≈ 21.4 µM); in test [6], 4 µg/mL (≈ 10.7 µM). In addition, the ED50 in test [3] came to 6.3 mg/kg; in test [5] it was 1.9 mg/kg.

For the compound `O=C(O)c1cn(C2CC2)c2cc(N3CCNCC3)c(F)cc2c1=O` [CIPROFLOXACIN], the MIC in test [1] was found to be 0.25 µg/mL (≈ 0.754 µM); in test [2], 2 µg/mL (≈ 6.04 µM); in test [4] it was 0.5 µg/mL (≈ 1.51 µM); in test [8], 0.25 µg/mL (≈ 0.754 µM). In addition, the ED50 stood at 0.86 mg/kg in test [3] and 0.2 mg/kg in test [5].

Take `C[C@H]1COc2c(N3CCN(C)CC3)c(F)cc3c(=O)c(C(=O)O)cn1c23.C[C@H]1COc2c(N3CCN(C)CC3)c(F)cc3c(=O)c(C(=O)O)cn1c23.O` [LEVOFLOXACIN]: the MIC came out at 2 µg/mL in test [1], 16 µg/mL in test [2], 16 µg/mL in test [4] and 32 µg/mL in test [6]. Also, the ED50 in test [3] worked out at 10.1 mg/kg; in test [5] it was 3.8 mg/kg.
